Results on one compound are retold here after paper PMC9320910, “Inhibition of Microtubule Affinity Regulating Kinase 4 by Metformin: Exploring the Neuroprotective Potential of Antidiabetic Drug through Spectroscopic and Computational Approaches” (Molecules, 2022).

The term Kd denotes the concentration at which binding is half-saturated. Read a low Kd as higher affinity.

For the assay, the target named is T1, Microtubule affinity regulating kinase 4 (MARK4) (Homo sapiens, UniProt Q96L34).
T1 sequence (Q96L34 1-752): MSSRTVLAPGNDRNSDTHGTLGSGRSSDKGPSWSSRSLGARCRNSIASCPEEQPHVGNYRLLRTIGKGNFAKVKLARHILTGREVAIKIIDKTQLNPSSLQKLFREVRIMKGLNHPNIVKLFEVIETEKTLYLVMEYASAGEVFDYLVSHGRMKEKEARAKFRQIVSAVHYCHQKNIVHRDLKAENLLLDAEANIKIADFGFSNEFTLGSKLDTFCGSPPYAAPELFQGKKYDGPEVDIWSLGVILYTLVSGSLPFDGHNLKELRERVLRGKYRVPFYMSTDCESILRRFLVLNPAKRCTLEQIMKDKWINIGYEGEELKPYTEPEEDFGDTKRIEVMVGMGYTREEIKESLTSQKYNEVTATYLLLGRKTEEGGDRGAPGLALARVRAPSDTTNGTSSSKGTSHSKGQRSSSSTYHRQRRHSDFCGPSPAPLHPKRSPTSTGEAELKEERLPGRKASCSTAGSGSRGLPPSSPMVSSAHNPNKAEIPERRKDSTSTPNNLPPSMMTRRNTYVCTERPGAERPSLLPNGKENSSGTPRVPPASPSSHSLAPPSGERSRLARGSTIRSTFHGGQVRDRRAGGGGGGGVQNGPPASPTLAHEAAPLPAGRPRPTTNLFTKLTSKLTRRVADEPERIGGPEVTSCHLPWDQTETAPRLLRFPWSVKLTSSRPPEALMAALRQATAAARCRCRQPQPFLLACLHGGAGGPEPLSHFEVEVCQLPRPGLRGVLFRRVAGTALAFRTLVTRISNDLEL
The assay is described as follows: intrinsic fluorescence quenching (modified Stern-Volmer); supported by malachite green ATPase assay of MARK4 (IC50 =[…]). Type of assay: binding.

In the case of `CN(C)C(=N)N=C(N)N` [Mtf, N,N-dimethylbiguanide], the Kd was 1.67 µM.
